Measured values reported in patent US20230331792A1, “NEW MULTI-FUNCTIONAL OLIGOPEPTIDES” (ENLITISA (SHANGHAI) PHARMACEUTICAL CO., LTD., priority 2019, published 2023).
Square brackets hold non-standard residues; d marks the D form. Ends that are not written are not given here. Dopa = N[C@@H](Cc1ccc(O)c(O)c1)C(=O)O; Hyp = O=C(O)[C@@H]1C[C@@H](O)CN1

What was measured:
Format in all cases: in vivo
[1] = tested on: C57BL/6 mice; test: Air pouch model (carrageenan-induced acute inflammation); set-up: key to Inflammation score / Edema score: 1 = mild, 2 = moderate, 3 = severe
Description: Healthy adult male C57BL/6 mice weighing between 20 and 30 g were supplied by Changzhou Cvens Experimental Animal Co. Ltd. Prior to any experiments being conducted, the mice were housed under standardized conditions (at a constant temperature or 22±2° C., with alternating 12-hour periods of light and darkness), and were fed on a standard mouse diet with water, for about a week. The mice were randomly divided into 9 groups as described in Table 4, with 7 mice in each group.
General anaesthesia was induced using intraperitoneal delivery of 3% chloral hydrate (Sinopharm Chemical Reagent Co., Ltd., Shanghai, China); 1 mL/10 g of body weight). The hair of the entire dorsum was shaved and depilated one day before sterile air injection.
Air pouches were produced by subcutaneous injection of sterile air (5 mL) into the intrascapular area of the mice. After three days, another injection of air (3 mL) was performed to maintain the pouches. In order to induce acute inflammation, three days after the second injection, animals received an injection of sterile carrageenan solution (CP Kelco, Taixing, Jiangsu Province, China; 1%, 0.5 mL; produced by adding 0.1 g of carrageenan powder into a beaker containing 10 mL of 0.9% saline solution and stirring). Mice were pre-treated with test samples or vehicle 1 hour before and 23 hours after the carrageenan injection into the subcutaneous air pouch. Animals were sacrificed 24 hours after the carrageenan injection.
Skin biopsies were taken from the air pouches. A part of the biopsy was fixed in formalin (produced by adding ultra-pure water to 50 mL of a 40% formaldehyde solution (Nanchang Rain Dew Experimental Equipment Co., Ltd., Nanchang, […] Provence, China) up to a total volume of 500 mL) and analyzed by histological embedding in paraffin wax, sectioning and staining.
The histological specimens were analyzed, and an inflammation score and an edema score were estimated. The inflammation scores were estimated by observing heamatoxylin and eosin (HE) stained slices under an optical microscope. Scores (between 1 to 3 points) were given according to the perceived inflammation level (e.g. in cases where only a small amount of inflammatory cells scattered in the area: 1 point was given (mild); in cases where many inflammatory cells were observed: 2 points were given (moderate); and, in cases with diffuse infiltration: 3 points were given (severe)). A similar scoring system was employed for edema levels (3 points for most severe and 1 point for mild) after overall observation.
After conducting some preliminary experiments to validate the model, an experiment was conducted in which mice were treated by administering test samples or vehicle in accordance with Table 4 below. Compound A and Compound B were dissolved in saline at concentrations indicated in Table 4 below (L=low dose, M=medium dose, H=high dose).
Compound A and Compound B were synthesized as described in Examples 8 and 7 above, respectively. The peptide powders were stored at −20° C. prior to use. Dexamethasone (Dex) was obtained from Shanghai Aladdin Bio-Chem Technology Co., Ltd., Shanghai, China.

[2] = tested on: C57BL/6 mice; test: Acute wound model (full-thickness skin wound); conditions: topical 50 μL/wound once daily Day 0 to Day 7; 1.65, 16.45, 164.5 μg/wound/day
Description: 6-8 weeks old male C57BL/6 mice were supplied by Changzhou Cvens Experimental Animal Co. Ltd. (Changzhou, Jiangsu Province, China). Prior to any experiments being conducted, mice were housed under standardized conditions at a constant temperature of 22±2° C., with alternating 12-hour periods of light and darkness, and were fed on a standard mouse diet with water, for about a week.
General anesthesia was induced using intraperitoneal administration of 3% chloral hydrate (1 mL/10 g of body weight). The hair on the back was shaved by a baby hair shaver and depilated with cream. The skin area was wiped and sterilized with 75% alcohol twice.
A 12 mm EMS skin biopsy punch (Electron Microscopy Sciences, P.O. Box 550, 1560 Industry Road, Hatfield, PA 19440) was used to make two round wounds on the midline of the back. The two wounds were tangential and the skin between the circles was cut along the upper and lower tangents. Scissors were used to trim the wound. The full thickness of skin was removed to reach the fascia. The wound was oval shape and was left open without suture. […]
Photographs were taken of each wound every other day from Day 0. Photos were scanned into a computer, and wound areas calculated using ImageJ image analysis software (National Institute of Health).
The unhealed wound area was expressed as a percentage of the original wound area: […]

[3] = tested on: db/db mice; test: Diabetic wound model, VEGF and TGF-β1 content in wound tissues; conditions: topical once daily; 1.65, 16.45, 164.5 μg/wound/day; vs model group
Description: 8 to 12 week old male db/db mice (C57BL/KsJ-db/db, with a body weight of 35-45 g/mouse) supplied by Changzhou Cvens Experimental Animal Co. Ltd. Prior to any experiments being conducted, mice were housed under standardized conditions at a constant temperature of 22±2° C., with alternating 12-hour periods of light and darkness, and were fed on a standard mouse diet with water, for about a week.
General anesthesia was induced using intraperitoneal 3% chloral hydrate (Sinopharm Chemical Reagent Co., Ltd.; 1 mL/10 g of body weight). The hair on the back was shaved by a baby hair shaver and depilated with cream. The skin area was wiped and sterilized with 75% alcohol twice.
An EMS skin biopsy punch with an 18 mm diameter was used to make a round wound on the back. The full thickness of skin was removed, and the depth of the wound reached the fascia. Wounds were left open without a suture.
The model group was given same amount of normal saline. There were 12 mice in each group apart from the control group, which had 8 mice. The skin pieces taken during wound creation were used as the samples at Day 7 for the control group.
Recombinant Human Epidermal Growth Factor (rhEGF) was purchased and prepared according to the instructions by the manufacturer. The lyophilized rhEGF powder (100000 IU/vial) was dissolved in 20 mL of normal saline to make a solution with a concentration of 5000 IU/mL. The working dose of rhEGF for this experiment was 1285 IU/wound.
Compound A and Compound B were dissolved in saline at concentrations indicated in Table 7 below (L=low dose, M=medium dose, H=high dose). 50 μL of each solution was applied to the wound surfaces every day.
Vascular endothelial growth factor (VEGF) and transforming growth factor-beta 1 (TGF-β1) play prominent roles in wound healing process. VEGF and TGF-β1 are often co-expressed in tissues in which angiogenesis occurs.

Substance	Edema score ([1]; low dose 50 μg/mouse)	Inflammation score ([1]; low dose 50 μg/mouse)	Sum of the scores ([1]; low dose 50 μg/mouse)	Edema score ([1]; medium dose 250 μg/mouse)	Inflammation score ([1]; medium dose 250 μg/mouse)	Sum of the scores ([1]; medium dose 250 μg/mouse)	unhealed wound rate / wound healing (FIG. 1) [2]	content of TGF-β1 in wound tissues (FIG. 3) [3]	content of VEGF in wound tissues (FIG. 2) [3]
{[(Dopa-Ala-Lys-Pro-Ser-Tyr-Hyp-Hyp-Thr-Tyr-Lys)2-Lys]2-Lys}2-Lys ([Dopa]AKPSY[Hyp][Hyp]TYKKKK; also: branched lysine dendrimer {[(peptide)2-Lys]2-Lys}2-Lys) [Compound A]	1.71	1.86	3.57	1.57	1.57	3.14	significantly improve wound healing	stimulated the production	stimulated the production
{[(Ala-Lys-Pro-Ser-Tyr-Hyp-Hyp-Thr-DOPA-Lys)2-Lys]2-Lys}2-Lys (AKPSY[Hyp][Hyp]T[Dopa]KKKK; also: branched lysine dendrimer {[(peptide)2-Lys]2-Lys}2-Lys) [Compound B]	2.00	1.83	3.83	2.14	1.80	3.94	significantly improve wound healing	stimulated the production	stimulated the production
